Some results are limits rather than exact numbers.

The target of the experiment is T1, gamma secretase (Homo sapiens, UniProt P49768).
T1 construct: HEK293 cells stably expressing full length Amyloid Precursor Protein (APP); endogenous in cells; host or cells: HEK 293 cells stably expressing full length APP
Description: GSM cell-based assay: Aβ 42 inhibition or reduction in HEK 293 cells over-expressing APP (sandwich ELISA). The following applies: approximate IC50; HEK293 cells stably expressing full length APP, 24 hours incubation, 10-point dose response starting at 10 μM. In a few lines: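 APP-overexpressing HEK293 cells treated 24 h with 10-point doses from 10 μM (0.1% DMSO). Aβ42 in conditioned medium measured by sandwich ELISA (RabMAb 42 capture, biotinylated 6E10 detection, Eu time-resolved fluorescence); CellTiter-Blue viability run in parallel. IC50 from percent of control versus concentration.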
On the technique in general: In an ELISA, binding on a coated surface is turned into a signal by an enzyme label.
`Cc1cc(-c2ccc(NC(=O)C(CC(C)C)c3cccc(-c4ccc(N5CCN(C(=O)OC(C)(C)C)CC5)cc4)c3)cc2)ccn1` (stereo not shown) [Cpd 228, tert-butyl 4-(3′-(3-methyl-1-((4-(2-methyl-4-pyridinyl)phenyl)carbamoyl)butyl)-4-biphenylyl)-1-piperazinecarboxylate]: half-maximal inhibition (IC50) was put at 0.135 µM. With `CCC(C(=O)Nc1ccc(-c2ccnc(C)c2)cc1)c1cccc(C)c1` (stereo not shown) [Cpd 200, 2-(3-methylphenyl)-N-(4-(2-methyl-4-pyridinyl)phenyl)butanamide] the figure was 1.05 µM.

Take `COc1cc(C(=O)Nc2ccc(-c3ccnc(C)c3)cc2)ccc1C` [Cpd 282]: the IC50 (in general, the concentration that inhibits the measured activity by half) is more than 10 µM. As for `Cc1cc(-c2ccc(NC(=O)C3CCCO3)cc2)ccn1` (stereo not shown) [Cpd 52], the IC50 is more than 10 µM. `Cc1cccc(C(C(=O)Nc2ccc(-c3ccnc(C)c3)cc2)C(C)C)c1` (stereo not shown) [Cpd 338, 3-methyl-2-(3-methylphenyl)-N-(4-(2-methyl-4-pyridinyl)phenyl)butanamide] had an IC50 of 1.35 µM. As for `Cc1cc(-c2ccc(NC(=O)c3cccc4c3oc3ccccc34)cc2)ccn1` [Cpd 286], the figure is 6.71 µM; as for `Cc1cc(-c2ccc(NC(=O)C(C)c3ccc(N)cc3)cc2)ccn1` (stereo not shown) [Cpd 419, 2-(4-aminophenyl)-N-(4-(2-methyl-4-pyridinyl)phenyl)propanamide], more than 10 µM; as for `Cc1cc(-c2ccc(NC(=O)c3cc(Cl)nc(Cl)c3)cc2)ccn1` [Cpd 51], more than 10 µM. As for `Cc1cc(-c2ccc(NC(=O)[C@H](CC3CC3)c3cccc(Br)c3)cc2)ccn1` [Cpd 180, (2R)-2-(3-bromophenyl)-3-cyclopropyl-N-(4-(2-methyl-4-pyridinyl)phenyl)-propanamide], the figure is 0.367 µM; as for `Cc1cc(-c2ccc(NC(=O)[C@@H](CC(C)C)c3cccc(-c4ccc(N5CCOCC5)cc4)c3)cc2)ccn1` [Cpd 127, (2S)-4-methyl-N-(4-(2-methyl-4-pyridinyl)phenyl)-2-(4′-(4-morpholinyl)-3-biphenylyl)pentanamide], 0.129 µM; as for `Cc1cc(-c2ccc(NC(=O)C(C)c3cccc(-c4ccc(C(=O)N(C)C)cc4)c3)cc2)ccn1` (stereo not shown) [Cpd 157], 0.256 µM.

`Cc1cc(-c2ccc(NC(=O)C(C)c3cccc(-c4cccc(C#N)c4)c3)cc2)ccn1` (stereo not shown) [Cpd 154, 2-(3′-cyano-3-biphenylyl)-N-(4-(2-methyl-4-pyridinyl)phenyl)propanamide]: it took 0.216 µM to reach half-maximal inhibition (IC50).

Take `Cc1cc(-c2ccc(NC(=O)c3cn4cc(Cl)ccc4n3)cc2)ccn1` [Cpd 300]: the IC50 was more than 10 µM. With `Cc1cc(-c2ccc(NC(=O)C(C)c3ccc(NC(C)C)cc3)cc2)ccn1` (stereo not shown) [Cpd 443] the figure was 0.302 µM; with `COCCNc1cccc(C(C)C(=O)Nc2ccc(-c3ccnc(C)c3)cc2)c1` (stereo not shown) [Cpd 166], 2.84 µM. With `Cc1cc(-c2ccc(NC(=O)C(C)c3cccc(C4=CCNCC4)c3)cc2)ccn1` (stereo not shown) [Cpd 425, N-(4-(2-methyl-4-pyridinyl)phenyl)-2-(3-(1,2,3,6-tetrahydro-4-pyridinyl)phenyl)-propanamide] the figure was more than 10 µM. With `Cc1cc(-c2ccc(NC(=O)C(C)c3cccc(N4CCN(C)CC4)c3)cc2)ccn1` (stereo not shown) [Cpd 138] the figure was more than 10 µM; with `Cc1cc(-c2ccc(NC(=O)C3CC(=O)N(c4ccc(Cl)cc4)C3)cc2)ccn1` (stereo not shown) [Cpd 308], more than 10 µM. Compound `Cc1cc(-c2ccc(NC(=O)c3ccccc3-c3ccccc3)cc2)ccn1` [Cpd 91] gave an IC50 of more than 10 µM. With `Cc1cc(-c2ccc(NC(=O)c3cn4cc(Br)ccc4n3)cc2)ccn1` [Cpd 315] the figure was 2.16 µM; with `Cc1cc(-c2ccc(NC(=O)C3CC(=O)c4ccccc43)cc2)ccn1` (stereo not shown) [Cpd 120], more than 3.33 µM.

On to `Cc1cc(-c2ccc(NC(=O)C(C)(C)c3cc(C(F)(F)F)cc(C(F)(F)F)c3)cc2)ccn1` [Cpd 336], for which the IC50 was more than 10 µM.

`Cc1cc(-c2ccc(NC(=O)C(C)c3cccc(-c4csc(N5CCOCC5)n4)c3)cc2)ccn1` (stereo not shown) [Cpd 183] came in with an IC50 of 0.827 µM. As for `Cc1cc(-c2ccc(NC(=O)Cc3ccc(OCc4ccccc4)cc3)cc2)ccn1` [Cpd 111, 2-(4-(benzyloxy)phenyl)-N-(4-(2-methyl-4-pyridinyl)phenyl)acetamide], the figure is 3.3 µM; as for `Cc1cc(-c2ccc(NC(=O)C3(c4ccc(Cl)cc4)CCC3)cc2)ccn1` [Cpd 310], 0.573 µM; as for `COC1CCCC(C(=O)Nc2ccc(-c3ccnc(C)c3)cc2)C1` (stereo not shown) [Cpd 35], 4.28 µM.

In the case of `CC(=O)N1CCN(c2ccc(-c3cccc([C@@H](C)C(=O)Nc4ccc(-c5ccnc(C)c5)cc4)c3)cc2)CC1` [Cpd 522], the IC50 is 0.32 µM.

Regarding `Cc1cc(-c2ccc(NC(=O)C(CC3CC3)c3cccc(Br)c3)cc2)ccn1` (stereo not shown) [Cpd 163, 2-(3-bromophenyl)-3-cyclopropyl-N-(4-(2-methyl-4-pyridinyl)phenyl)propanamide], 0.184 µM corresponded to half-maximal inhibition (IC50). With `COc1ccc(C(=O)Nc2ccc(-c3ccnc(C)c3)cc2)cc1Cl` [Cpd 37] the figure was 0.567 µM. With `Cc1cc(-c2ccc(NC(=O)[C@@H](C)c3ccccc3)cc2)ccn1` [Cpd 21, (2S)-N-(4-(2-methyl-4-pyridinyl)phenyl)-2-phenylpropanamide] the figure was 1.7 µM; with `Cc1cc(-c2ccc(NC(=O)[C@H](CC(C)C)c3cc(F)cc(F)c3)cc2)ccn1` [Cpd 190], 0.349 µM; with `Cc1cc(-c2ccc(NC(=O)C(CC(C)C)c3ccc(N4CCCCC4)cc3)cc2)ccn1` (stereo not shown) [Cpd 134, 4-methyl-N-(4-(2-methyl-4-pyridinyl)-phenyl)-2-(4-(1-piperidinyl)phenyl)-pentanamide], 0.242 µM.

Compound `Cc1cc(-c2ccc(NC(=O)C(C)c3ccc(NC4CCOCC4)cc3)cc2)ccn1` (stereo not shown) [Cpd 188, N-(4-(2-methyl-4-pyridinyl)phenyl)-2-(4-(tetrahydro-2H-pyran-4-ylamino)phenyl)-propanamide] registered an IC50 of 2.59 µM. Against the preceding compound, the IC50 is about 11-fold higher.

Consider `Cc1cc(-c2ccc(NC(=O)Cc3ccccn3)cc2)ccn1` [Cpd 88, N-(4-(2-methyl-4-pyridinyl)phenyl)-2-(2-pyridinyl)acetamide], for which the IC50 was more than 10 µM.

The values above are taken from patent US20110166132A1, “Gamma Secretase Modulators” (Amgen Inc., priority 2007, published 2011).
